Values joined by “and” are separate entries in the source; they are usually repeats but may differ in a detail not shown here. Equal entries are not always repeated.
Columns and labels:
root-knot nematodes [1] = assay: Nematicidal activity of citral on root-knot nematodes (selectivity experiment); details: 250 ppm
Text: Living saprophagus nematodes move rapidly in water. The control used was the nematodes in water alone.
The figures given are for the percentage of nematodes found to be dead upon microscopic examination and are the average of 2 replicates.

root-knot nematodes [2] = assay: Effect of pH on the nematicidal activity of citral (fresh and one-day old solutions); type: in vivo, root-knot nematode
Protocol: Test solutions of these three concentrations were prepared at different pHs by adjusting the pH with HCl or NaOH to pH 4, 7 and 10.
One batch of test solutions was used immediately and another was left for 24 hours before use. The method of administration to the nematodes and counting the kill rate is the same as for previous protocols.
The results are shown below in Tables 11 and 12.

Citrus nematodes = assay: Nematicidal effects of citral in soil, Citrus nematodes; type: in vivo, citrus nematode
Protocol: Methodology: Nematodes used for the analysis originated from commercial agricultural crop soils. Species of nematode included root-knot and citrus. Prior to commencement of each study the nematodes were counted and evaluated for viability. In each experiment soil samples were infected with only one species of nematode. Three measured quantities of soil (250 g) were placed into large PVC plastic containers.
Soil moisture was assessed by weighing a soil sample and then drying the sample in a drying oven. Soil moisture content was confirmed using a “Hydroscout” instrument. In all cases the moisture content measured by both methods was within the resolution of the instruments. By determining the water content of the soil it was possible to calculate the volume of terpene solution which would be diluted when mixed with the soil.
These dilutions were by volume not the more commonly used mass ratios. The reason for using volume dilutions was simply one of convenience enabling the use of a micropipette or cylinder to measure the terpene. The mass ratio of the ‘in soil’ and ‘in water’ solution could be simply calculated by multiplying the ppm of terpene by it's density (0.92 g/ml).
The terpene solution was added to each test tube containing a weighed sample of nematode infected soil. The terpene solution and soil were mixed by inverting the test tube several times. The test tubes containing the soil and terpene solution were left to stand in racks in the laboratory for 48 hours-72 hours depending on the survival of the untreated nematodes. In each experiment a control group was treated with distilled water. The % mortality (kill) rates in the treatment groups was compared with the control population.
The nematodes were extracted by “Sieving & mist extraction” (Ayoub, S. M. 1977) prior to being counted.
Criteria for Evaluation: Nematode counts were performed to determine the proportion of nematodes which survived and were killed in each treatment group.
The results are shown below on Table 17 to 19.

Root Knot nematodes = assay: Nematicidal effects of citral in soil, Root Knot nematodes; type: in vivo, root-knot nematode
Protocol: Methodology: Nematodes used for the analysis originated from commercial agricultural crop soils. Species of nematode included root-knot and citrus. Prior to commencement of each study the nematodes were counted and evaluated for viability. In each experiment soil samples were infected with only one species of nematode. Three measured quantities of soil (250 g) were placed into large PVC plastic containers. Soil moisture was assessed by weighing a soil sample and then drying the sample in a drying oven. Soil moisture content was confirmed using a “Hydroscout” instrument. In all cases the moisture content measured by both methods was within the resolution of the instruments. By determining the water content of the soil it was possible to calculate the volume of terpene solution which would be diluted when mixed with the soil. […] These dilutions were by volume not the more commonly used mass ratios. The reason for using volume dilutions was simply one of convenience enabling the use of a micropipette or cylinder to measure the terpene. The mass ratio of the ‘in soil’ and ‘in water’ solution could be simply calculated by multiplying the ppm of terpene by it's density (0.92 g/ml). The terpene solution was added to each test tube containing a weighed sample of nematode infected soil. The terpene solution and soil were mixed by inverting the test tube several times. […] In each experiment a control group was treated with distilled water. The % mortality (kill) rates in the treatment groups was compared with the control population. The nematodes were extracted by “Sieving & mist extraction” (Ayoub, S. M. 1977) prior to being counted. Criteria for Evaluation: Nematode counts were performed to determine the proportion of nematodes which survived and were killed in each treatment group. […] The results are shown below on Table 17 to 19. The experiment was performed once again, this time with the following changes: • Dose range of 125 ppm-750 ppm was used. • Glass tubes containing 150 g of soil were used as opposed to PVC tubes in previous experiments.

[3] = Xanthan gum as interstitial hydrocolloid: dispersion of dried encapsulated L-carvone particles when re-hydrated; type: physicochemical; details: dispersion on re-hydration, SAF 1 g, L-carvone emulsion 1.1 g
Protocol: The following protocol was adopted to evaluate the effect of an interstitial hydrocolloid to increase dried hollow glucan particle encapsulated terpene formulations to disperse when hydrated. • SAF Mannan™ particles • 0.1% Tween 80 • L-carvone • Xanthan Gum—1% w/v in 0.1% Tween 80
The effect of increasing xanthan gum levels on dry hollow glucan particle encapsulated L-carvone dispersion in water was assessed by loading L-carvone into SAF Mannan by incubating 1.1 g of an L-carvone emulsion (L-carvone:water:surfactant ratio of 0.75:0.3:0.05) with 1 g SAF Mannan and 4.4 g 0.1% Tween 80 containing 0-1% xanthan gum as shown in Table 32.

CC(C)=CCCC(C)=CC=O [Citral, citral]
% dead (root-knot nematodes [1]; 24 h): 87% and 88%
% dead (root-knot nematodes [1]; 48 h): 100%
% nematodes dead (root-knot nematodes [2]; fresh citral, 62.5 ppm, pH 4, 24 h): 48%
% nematodes dead (root-knot nematodes [2]; fresh citral, 62.5 ppm, pH 4, 48 h): 50%
% nematodes dead (root-knot nematodes [2]; fresh citral, 62.5 ppm, pH 7, 24 h): 39%
% nematodes dead (root-knot nematodes [2]; fresh citral, 62.5 ppm, pH 7, 48 h): 44%
% nematodes dead (root-knot nematodes [2]; fresh citral, 62.5 ppm, pH 10, 24 h): 32%
% nematodes dead (root-knot nematodes [2]; fresh citral, 62.5 ppm, pH 10, 48 h): 45%
% nematodes dead (root-knot nematodes [2]; fresh citral, 125 ppm, pH 4, 24 h): 31%
% nematodes dead (root-knot nematodes [2]; fresh citral, 125 ppm, pH 4, 48 h): 50%
% nematodes dead (root-knot nematodes [2]; fresh citral, 125 ppm, pH 7, 24 h): 44%
% nematodes dead (root-knot nematodes [2]; fresh citral, 125 ppm, pH 7, 48 h): 47%
% nematodes dead (root-knot nematodes [2]; fresh citral, 125 ppm, pH 10, 24 h): 39%
% nematodes dead (root-knot nematodes [2]; fresh citral, 125 ppm, pH 10, 48 h): 39%
% nematodes dead (root-knot nematodes [2]; fresh citral, 250 ppm, pH 4, 24 h): 75%
% nematodes dead (root-knot nematodes [2]; fresh citral, 250 ppm, pH 4, 48 h): 73%
% nematodes dead (root-knot nematodes [2]; fresh citral, 250 ppm, pH 7, 24 h): 73%
% nematodes dead (root-knot nematodes [2]; fresh citral, 250 ppm, pH 7, 48 h): 72%
% nematodes dead (root-knot nematodes [2]; fresh citral, 250 ppm, pH 10, 24 h): 83%
% nematodes dead (root-knot nematodes [2]; fresh citral, 250 ppm, pH 10, 48 h): 87%
% nematodes dead (root-knot nematodes [2]; one-day old citral, 62.5 ppm, pH 4, 24 h): 40%
% nematodes dead (root-knot nematodes [2]; one-day old citral, 62.5 ppm, pH 4, 48 h): 27%
% nematodes dead (root-knot nematodes [2]; one-day old citral, 62.5 ppm, pH 7, 24 h): 30%
% nematodes dead (root-knot nematodes [2]; one-day old citral, 62.5 ppm, pH 7, 48 h): 27%
% nematodes dead (root-knot nematodes [2]; one-day old citral, 62.5 ppm, pH 10, 24 h): 16%
% nematodes dead (root-knot nematodes [2]; one-day old citral, 62.5 ppm, pH 10, 48 h): 21%
% nematodes dead (root-knot nematodes [2]; one-day old citral, 125 ppm, pH 4, 24 h): 27%
% nematodes dead (root-knot nematodes [2]; one-day old citral, 125 ppm, pH 4, 48 h): 31%
% nematodes dead (root-knot nematodes [2]; one-day old citral, 125 ppm, pH 7, 24 h): 25%
% nematodes dead (root-knot nematodes [2]; one-day old citral, 125 ppm, pH 7, 48 h): 33%
% nematodes dead (root-knot nematodes [2]; one-day old citral, 125 ppm, pH 10, 24 h): 25%
% nematodes dead (root-knot nematodes [2]; one-day old citral, 125 ppm, pH 10, 48 h): 32%
% nematodes dead (root-knot nematodes [2]; one-day old citral, 250 ppm, pH 4, 24 h): 90%
% nematodes dead (root-knot nematodes [2]; one-day old citral, 250 ppm, pH 4, 48 h): 90%
% nematodes dead (root-knot nematodes [2]; one-day old citral, 250 ppm, pH 7, 24 h): 40%
% nematodes dead (root-knot nematodes [2]; one-day old citral, 250 ppm, pH 7, 48 h): 33%
% nematodes dead (root-knot nematodes [2]; one-day old citral, 250 ppm, pH 10, 24 h): 47%
% nematodes dead (root-knot nematodes [2]; one-day old citral, 250 ppm, pH 10, 48 h): 52%
Mean % killed (Citrus nematodes; first experiment (Table 16), 62.5 ppm, 8 replicates): −2.84%
Mean % killed (Citrus nematodes; first experiment (Table 16), 125 ppm, 8 replicates): 46.29%
Mean % killed (Citrus nematodes; first experiment (Table 16), 250 ppm, 8 replicates): 91.66%
Mean % killed (Citrus nematodes; first experiment (Table 16), 500 ppm, 8 replicates): 95.53%
Mean % killed (Citrus nematodes; repeated protocol (Table 19), 500 ppm, N 10): 99.9%
Mean % killed (Root Knot nematodes; first experiment (Table 15), soil, 62.5 ppm, 8 replicates): 18.87%
Mean % killed (Root Knot nematodes; first experiment (Table 15), soil, 125 ppm, 8 replicates): 4.34%
Mean % killed (Root Knot nematodes; first experiment (Table 15), soil, 250 ppm, 8 replicates): 23.66%
Mean % killed (Root Knot nematodes; first experiment (Table 15), soil, 500 ppm, 8 replicates): 67.10%
Mean % killed (Root Knot nematodes; repeated protocol (Table 18), soil, 500 ppm, N 10): 99.6%
Mean % killed (Root Knot nematodes; third experiment (Table 20), glass tubes, 150 g of soil, 125 ppm, N 8): 74.51%
Mean % killed (Root Knot nematodes; third experiment (Table 20), glass tubes, 150 g of soil, 250 ppm, N 8): 97.37%
Mean % killed (Root Knot nematodes; third experiment (Table 20), glass tubes, 150 g of soil, 500 ppm, N 8): 100%
Mean % killed (Root Knot nematodes; third experiment (Table 20), glass tubes, 150 g of soil, 750 ppm, N 8): 99.42%

L-carvone
Visual Observations ([3]; 0.1% Tween-80 0 g, 1% xanthan 4.4 g): Finer Uniform
Visual Observations ([3]; 0.1% Tween-80 2.2 g, 1% xanthan 2.2 g): Finer Uniform
Visual Observations ([3]; 0.1% Tween-80 3.3 g, 1% xanthan 1.1 g): Finer Uniform
Visual Observations ([3]; 0.1% Tween-80 3.85 g, 1% xanthan 0.55 g): Uniform
Visual Observations ([3]; 0.1% Tween-80 4.12 g, 1% xanthan 0.28 g): Uniform
Visual Observations ([3]; 0.1% Tween-80 4.26 g, 1% xanthan 0.14 g): Uniform
Visual Observations ([3]; 0.1% Tween-80 4.33 g, 1% xanthan 0.07 g): Uniform
Visual Observations ([3]; 0.1% Tween-80 4.4 g, 1% xanthan 0 g): Large non-
